The record followed here is patent US12344610B2, “APOL1 inhibitors and methods of use” (Maze Therapeutics, Inc., priority 2022, dated 2025).

Assay [1] relates to HEK293 cells overexpressing APOL1 G2. Nature of the assay: APOL1 G2 HEK293 cell rescue assay (reversal of cell death caused by overexpression of APOL1). Format: cell-based. The settings on record: geometric mean of at least 2 assay runs, † = single assay run. The method, boiled down: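 Each compound tested in duplicate wells on one plate per run, with values usually the geometric mean across at least two runs on different days, occasionally from one run only. Read-out: concentration giving half-maximal rescue of APOL1 G2 overexpression-induced death of HEK293 cells.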

Assay [2] concerns the target T1, APOL1 G2 (Homo sapiens, UniProt O14791, DEL388-389).
T1 construct: expressed in transfected cells; host or cells: HEK293 T-REx clonal line stably expressing GCaMP6f (HEK T-REx/GCaMP6f/APOL1 G2 K6.3), doxycycline induced
T1 sequence (O14791 with tags, fused parts or gaps DEL388-389): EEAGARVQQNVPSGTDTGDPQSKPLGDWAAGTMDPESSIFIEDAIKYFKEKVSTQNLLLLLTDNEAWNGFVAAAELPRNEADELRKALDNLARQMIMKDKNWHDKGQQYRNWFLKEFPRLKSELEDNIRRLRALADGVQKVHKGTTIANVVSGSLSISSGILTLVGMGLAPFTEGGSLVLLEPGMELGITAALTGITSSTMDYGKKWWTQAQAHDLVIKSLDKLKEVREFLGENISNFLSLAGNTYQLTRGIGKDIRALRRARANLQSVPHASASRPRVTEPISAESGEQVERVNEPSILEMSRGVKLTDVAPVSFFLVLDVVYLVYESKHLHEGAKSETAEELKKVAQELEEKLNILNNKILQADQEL
Nature of the assay: APOL1-mediated calcium transport (calcium influx) assay, HEK T-REx/GCaMP6f/APOL1 G2 K6.3 cells, FLIPR TETRA. Format: cell-based. As to conditions: prevention of calcium influx; geometric mean of at least 2 assay runs; † = average of a technical replicate from a single assay run. Summed up: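 A HEK293 T-REx clone stably expressing GCaMP6f had APOL1 G2 induced with doxycycline (20 ng/mL solution added) for 6 h. Cells were then washed into Ca2+-free Tyrode's buffer (pH 7.4) and preincubated with compounds (duplicate 8-point) for 10 min at room temperature. Ca2+ injection to 5 mM final produced FLIPR GCaMP fluorescence, giving AC50 for influx inhibition (geometric mean, ≥2 runs).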

[3] abbreviates: Homo sapiens, HEK293, HEK293 overexpressing APOL1 G2.

Consider `CC(COc1ccc(C2(S(C)(=O)=O)COC2)cc1)N1CCC2(CC1)C(=O)Nc1ccc(C#N)cc12` (single isomer, unassigned) [Compound 263, (S) or (R)-1′-{1-[4-(3-methanesulfonyloxetan-3-yl)phenoxy]propan-2-yl}-2-oxo-1,2-dihydrospiro[indole-3,4′-piperidine]-5-carbonitrile], for which the EC50 in assay [1] (HEK293 overexpressing APOL1 G2) is 198 nM. Besides, the AC50 in assay [2] is 2540 nM.
Turning to `CC1(O)CN(c2ncc(OCCN3CCC4(CC3)C(=O)Nc3ccc(Cl)cc34)cn2)C1` [Compound 300, 5-chloro-1′-(2-{[2-(3-hydroxy-3-methylazetidin-1-yl)pyrimidin-5-yl]oxy}ethyl)-1,2-dihydrospiro[indole-3,4′-piperidin]-2-one], the EC50 in assay [1] (setting [3]) was 100 nM. Moreover, the AC50 in assay [2] is 674 nM.
`CS(=O)(=O)c1ccc(OCCN2CCC3(CC2)C(=O)Nc2ccc(Cl)cc23)cc1C(O)CO` (stereo not drawn) [Compound 216, 5-chloro-1′-{2-[3-(1,2-dihydroxyethyl)-4-methanesulfonylphenoxy]ethyl}-1,2-dihydrospiro[indole-3,4′-piperidin]-2-one]: in assay [1] (setting [3]), the concentration for a half-maximal effect (EC50) is 281 nM. In addition, the AC50 in assay [2] was 3140 nM.
For the compound `O=C1CCc2cc(OCCN3CCC4(CC3)C(=O)Nc3ccc(Cl)cc34)cnc2N1[C@H]1C[C@@](O)(C2CC2)C1` (single isomer, unassigned) [Compound 297, 5-chloro-1′-[2-({7-oxo-8-[(trans)-3-cyclopropyl-3-hydroxycyclobutyl]-5,6,7,8-tetrahydro-1,8-naphthyridin-3-yl}oxy)ethyl]-1,2-dihydrospiro[indole-3,4′-piperidin]-2-one], the EC50 in assay [1] (setting [3]) amounted to 31.8 nM. Also, the AC50 in assay [2] was 937 nM.
On to `CS(=O)(=O)C1(c2ccc(OCCN3CCC4(CC3)C(=O)Nc3ccc(C(F)F)cc34)cc2)CC(O)C1` (single isomer, unassigned) [Compound 281, 5-(difluoromethyl)-1′-(2-{4-[(cis) or (trans)-3-hydroxy-1-methanesulfonylcyclobutyl]phenoxy}ethyl)-1,2-dihydrospiro[indole-3,4′-piperidin]-2-one], for which, in assay [1] (HEK293 overexpressing APOL1 G2), the EC50 worked out at 56 nM. Moreover, the AC50 in assay [2] came out at 1310 nM.
With `CS(=O)(=O)C1(c2ncc(OCCN3CCC4(CC3)C(=O)Nc3ccc(C#N)cc34)cc2F)CC1` [Compound 283, 1′-(2-{[5-fluoro-6-(1-methanesulfonylcyclopropyl)pyridin-3-yl]oxy}ethyl)-2-oxo-1,2-dihydrospiro[indole-3,4′-piperidine]-5-carbonitrile], the EC50 in assay [1] (setting [3]) was found to be 99 nM. In assay [2], the AC50 worked out at 2000 nM.
The matching figures for `O=C1CCc2cc(OCCN3CCC4(CC3)C(=O)Nc3ccc(Cl)cc34)ccc2N1[C@H]1C[C@H](O)C1` [Compound 224, 5-chloro-1′-[2-({2-oxo-1-[(trans)-3-hydroxycyclobutyl]-1,2,3,4-tetrahydroquinolin-6-yl}oxy)ethyl]-1,2-dihydrospiro[indole-3,4′-piperidin]-2-one]: 38.6 nM and 830 nM.
The matching figures for `CS(=O)(=O)c1ccc(OCCN2CCCC3(CC2)C(=O)Nc2ccccc23)cc1` (stereo not drawn) [Compound 26, 1-(2-(4-(methylsulfonyl)phenoxy)ethyl)spiro[azepane-4,3′-indolin]-2′-one]: 1760 nM and 943 nM.
With `CN1C(=O)C2(CCN(CCOc3ccc(C(=O)N4CCS(=O)(=O)CC4)c(C(F)(F)F)c3)CC2)c2cc(C#N)ccc21` [Compound 261, 1′-{2-[4-(1,1-dioxo-1λ^6-thiomorpholine-4-carbonyl)-3-(trifluoromethyl)phenoxy]ethyl}-1-methyl-2-oxo-1,2-dihydrospiro[indole-3,4′-piperidine]-5-carbonitrile], the EC50 in assay [1] (setting [3]) was determined as 89 nM. Besides, in assay [2], the AC50 is 1460 nM.
`CN1C(=O)C2(CCN(CCOc3ccc(S(=O)(=O)CCCS(C)(=O)=O)cc3)CC2)c2cc(Cl)ccc21` [Compound 23, 5-chloro-1′-{2-[4-(3-methanesulfonylpropanesulfonyl)phenoxy]ethyl}-1-methyl-1,2-dihydrospiro[indole-3,4′-piperidin]-2-one]: the EC50 in assay [1] (setting [3]) was found to be 135 nM. In assay [2], the AC50 stood at 514 nM.
For the compound `CC(COc1ccc2c(c1)CCC(=O)N2C)N1CCC2(CC1)C(=O)Nc1ccc(C#N)cc12` (single isomer, unassigned) [Compound 203, (S) or (R)-1′-{1-[(1-methyl-2-oxo-1,2,3,4-tetrahydroquinolin-6-yl)oxy]propan-2-yl}-2-oxo-1,2-dihydrospiro[indole-3,4′-piperidine]-5-carbonitrile], the EC50 in assay [1] (HEK293 overexpressing APOL1 G2) came out at 187 nM. In addition, the AC50 in assay [2] is 1190 nM.
Consider `C[C@@H](COc1ccc(S(C)(=O)=O)c(C(F)F)c1)N1CCC2(CC1)C(=O)Nc1ccc(C#N)cc12` (single isomer, unassigned) [Compound 212], for which the EC50 in assay [1] (setting [3]) was found to be 81.4 nM. Further, in assay [2], the AC50 is 1360 nM.
For the compound `C[C@]1(O)C[C@@H](N2C(=O)OCc3cc(OCCN4CCC5(CC4)C(=O)Nc4ccc(Cl)cc45)cnc32)C1` [Compound 289, 5-chloro-1′-[2-({2-oxo-1-[(cis)-3-hydroxy-3-methylcyclobutyl]-1H,2H,4H-pyrido[2,3-d][1,3]oxazin-6-yl]oxy)ethyl]-1,2-dihydrospiro[indole-3,4′-piperidin]-2-one], the EC50 in assay [1] (setting [3]) turned out to be 16.7 nM. For the same compound, in assay [2], the AC50 worked out at 552 nM.
As to `CN1C(=O)CCc2cc(OCCN3CCC4(CC3)C(=O)Nc3ccc(Cl)cc34)ccc21` [Compound 27, 5-chloro-1′-[2-[(1-methyl-2-oxo-3,4-dihydroquinolin-6-yl)oxy]ethyl]spiro[indoline-3,4′-piperidine]-2-one], in assay [1] (setting [3]), the EC50 turned out to be 62 nM. Moreover, the AC50 in assay [2] is 510 nM.
With `CS(=O)(=O)c1ccc(OCCN2CCC3(CC2)C(=O)N(CCO)c2ccc(Cl)cc23)cc1C(F)F` [Compound 265, 5-chloro-1′-{2-[3-(difluoromethyl)-4-methanesulfonylphenoxy]ethyl}-1-(2-hydroxyethyl)-1,2-dihydrospiro[indole-3,4′-piperidin]-2-one], the EC50 in assay [1] (setting [3]) was found to be 30 nM. Besides, in assay [2], the AC50 is 697 nM.
Turning to `CS(=O)(=O)c1ccc(OCCN2CCC3(CC2)C(=O)N(CCO)c2ccc(C#N)cc23)cc1C(F)F` [Compound 266, 1′-{2-[3-(difluoromethyl)-4-methanesulfonylphenoxy]ethyl}-1-(2-hydroxyethyl)-2-oxo-1,2-dihydrospiro[indole-3,4′-piperidine]-5-carbonitrile], in assay [1] (setting [3]), the EC50 stood at 104 nM. Also, in assay [2], the AC50 was found to be 862 nM.
Regarding `O=C(c1ccc(OCCN2CCC3(CC2)C(=O)Nc2ccc(Cl)cc23)cc1F)N1CC2(C1)CS(=O)(=O)C2` [Compound 239, 6-[4-(2-{5-chloro-2-oxo-1,2-dihydrospiro[indole-3,4′-piperidin]-1′-yl}ethoxy)-2-fluorobenzoyl]-2λ^6-thia-6-azaspiro[3.3]heptane-2,2-dione], the EC50 in assay [1] (setting [3]) is 77.9 nM. Besides, the AC50 in assay [2] was determined as 1540 nM.
As to `C[C@]1(O)C[C@@H](N2C(=O)CCc3cc(OCCN4CCC5(CC4)C(=O)Nc4ccc(C(F)F)cc45)cnc32)C1` [Compound 274, 5-(difluoromethyl)-1′-[2-({7-oxo-8-[(cis)-3-hydroxy-3-methylcyclobutyl]-5,6,7,8-tetrahydro-1,8-naphthyridin-3-yl}oxy)ethyl]-1,2-dihydrospiro[indole-3,4′-piperidin]-2-one], the EC50 in assay [1] (setting [3]) was found to be 34 nM. For the same compound, the AC50 in assay [2] was found to be 722 nM.
With `CC[C@]1(O)C[C@H](N2C(=O)CCc3cc(OCCN4CCC5(CC4)C(=O)Nc4ccc(Cl)cc45)cnc32)C1` (single isomer, unassigned) [Compound 290, 5-chloro-1′-[2-({7-oxo-8-[(trans)-3-ethyl-3-hydroxycyclobutyl]-5,6,7,8-tetrahydro-1,8-naphthyridin-3-yl}oxy)ethyl]-1,2-dihydrospiro[indole-3,4′-piperidin]-2-one], the EC50 in assay [1] (setting [3]) was found to be 18.2 nM. Besides, the AC50 in assay [2] is 253 nM.
With `O=C1CCc2cc(OCCN3CCC4(CC3)C(=O)Nc3ccc(Cl)cc34)cnc2N1CCO` [Compound 192, 5-chloro-1′-(2-{[8-(2-hydroxyethyl)-7-oxo-5,6,7,8-tetrahydro-1,8-naphthyridin-3-yl]oxy}ethyl)-1,2-dihydrospiro[indole-3,4′-piperidin]-2-one], the EC50 in assay [1] (setting [3]) turned out to be 41.1 nM. Moreover, the AC50 in assay [2] was found to be 291 nM.
For `O=C1Nc2ccc(Cl)cc2C12CCN(CCOc1ccc(S(=O)(=O)C3(CO)CC3)nc1)CC2` [Compound 248, 5-chloro-1′-{2-[(6-{[1-(hydroxymethyl)cyclopropyl]sulfonyl}pyridin-3-yl)oxy]ethyl}-1,2-dihydrospiro[indole-3,4′-piperidin]-2-one] the same measures were 58.4 nM and 820 nM.

As usually defined, the EC50 is the concentration at which the effect is half-maximal. As a reminder, the AC50 is the midpoint of the concentration-response curve, whichever way the signal moves.
